# Reference: patent publication US11890288B2, “Sulfonamide or sulfinamide compound having effect of inducing BRD4 protein degradation and pharmaceutical use thereof” (MITSUBISHI TANABE PHARMA CORPORATION, priority 2020, dated 2024)
# Key:
# [1] = test system: human prostate cancer LNCaP cells; test: Cytotoxic action on LNCaP cells (WST-8, 96 hr); format: cell-based; details: 96 hr culture
# How it was run: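 Growth-inhibition format: 96 hr continuous exposure, 37° C, 5% CO2, 10% FBS/RPMI1640, WST-8 read-out. Values are IC50 against the untreated-control survival, taken from the line joining the two points around 50%.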
# [2] = molecular target: BRD4 protein (Homo sapiens (Human), UniProt O60885); test: BRD4 protein degradation inducing action in LNCaP cells (immunofluorescence, 6 hr); format: cell-based; details: anti-BRD4 fluorescence intensity
# How it was run: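 Read-out is BRD4 immunofluorescence intensity (560/572 nm) after 6 hr compound treatment of LNCaP cells in 10% FBS/RPMI1640, with fixation, permeabilization and anti-BRD4 staining. Linear interpolation between the two concentrations flanking 50% of untreated intensity gives DC50.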
Compound,IC50 [1] [nM],DC50 [2] [nM]
"COc1ccc2c(c1)C(c1ccc(-c3ccc(C(=O)NCc4ccc(S(=O)(=O)Nc5ccc(C)c6c(C#N)c[nH]c56)cc4)cc3)cc1)=N[C@@H](CC(=O)OC(C)(C)C)c1nnc(C)n1-2 [Example Compound 132, t-butyl [(4S)-6-{4′-[({4-[(3-cyano-4-methyl-1H-indol-7-yl)sulfamoyl]phenyl}methyl)carbamoyl][1,1′-biphenyl]-4-yl}-8-methoxy-1-methyl-4H-[1,2,4]triazolo[4,3-a][1,4]benzodiazepin-4-yl]acetate]",0.21,0.13
"COC(=O)C[C@@H]1N=C(c2ccc(-c3ccc(C(=O)NCc4ccc(S(=O)(=O)Nc5ccc(C)c6c(C#N)c[nH]c56)cc4)cc3)cc2)c2cc(OC)ccc2-n2c(C)nnc21 [Example Compound 133, methyl [(4S)-6-{4′-[({4-[(3-cyano-4-methyl-1H-indol-7-yl)sulfamoyl]phenyl}methyl)carbamoyl][1,1′-biphenyl]-4-yl}-8-methoxy-1-methyl-4H-[1,2,4]triazolo[4,3-a][1,4]benzodiazepin-4-yl]acetate]",0.49,0.34
"Cc1sc2c(c1C)C(c1ccc(-c3ccc(C(=O)N[C@H](C)c4ccc(S(=O)(=O)Nc5ccc(C)c6c(C#N)c[nH]c56)cc4)cc3)cc1)=N[C@@H](CC(=O)OC(C)(C)C)c1nnc(C)n1-2 [Example Compound 134, t-butyl [(6S)-4-(4′-{[(1R)-1-{4-[(3-cyano-4-methyl-1H-indol-7-yl)sulfamoyl]phenyl}ethyl]carbamoyl}[1,1′-biphenyl]-4-yl)-2,3,9-trimethyl-6H-thieno[3,2-f][1,2,4]triazolo[4,3-a][1,4]diazepin-6-yl]acetate]",0.55,0.31
"CCc1ccc(NS(=O)(=O)c2ccc(CNC(=O)c3ccc(-c4ccc(C5=N[C@@H](CC(=O)OC(C)(C)C)c6nnc(C)n6-c6sc(C)c(C)c65)cc4)cc3)cc2)c2[nH]cc(C#N)c12 [Example Compound 135, t-butyl [(6S)-4-{4′-[({4-[(3-cyano-4-ethyl-1H-indol-7-yl)sulfamoyl]phenyl}methyl)carbamoyl][1,1′-biphenyl]-4-yl}-2,3,9-trimethyl-6H-thieno[3,2-f][1,2,4]triazolo[4,3-a][1,4]diazepin-6-yl]acetate]",0.66,0.38
"CCc1ccc(NS(=O)(=O)c2ccc([C@@H](C)NC(=O)c3ccc(-c4ccc(C5=N[C@@H](CC(=O)OC(C)(C)C)c6nnc(C)n6-c6sc(C)c(C)c65)cc4)cc3)cc2)c2[nH]cc(C#N)c12 [Example Compound 136, t-butyl [(6S)-4-(4′-{[(1R)-1-{4-[(3-cyano-4-ethyl-1H-indol-7-yl)sulfamoyl]phenyl}ethyl]carbamoyl}[1,1′-biphenyl]-4-yl)-2,3,9-trimethyl-6H-thieno[3,2-f][1,2,4]triazolo[4,3-a][1,4]diazepin-6-yl]acetate]",0.6,0.25
"CCc1ccc(NS(=O)(=O)c2ccc(CCNC(=O)c3ccc(-c4ccc(C5=N[C@@H](CC(=O)OC(C)(C)C)c6nnc(C)n6-c6sc(C)c(C)c65)cc4)cc3)cc2)c2[nH]cc(C#N)c12 [Example Compound 137, t-butyl [(6S)-4-{4′-[(2-{4-[(3-cyano-4-ethyl-1H-indol-7-yl)sulfamoyl]phenyl}ethyl)carbamoyl][1,1′-biphenyl]-4-yl}-2,3,9-trimethyl-6H-thieno[3,2-f][1,2,4]triazolo[4,3-a][1,4]diazepin-6-yl]acetate]",0.48,0.13
"Cc1sc2c(c1C)C(c1ccc(-c3ccc(C(=O)NCc4ccc(S(=O)(=O)Nc5ccc(C)c6c(C#N)c[nH]c56)cc4)c(F)c3F)cc1)=N[C@@H](CC(=O)OC(C)(C)C)c1nnc(C)n1-2 [Example Compound 138, t-butyl [(6S)-4-{4′-[({4-[(3-cyano-4-methyl-1H-indol-7-yl)sulfamoyl]phenyl}methyl)carbamoyl]-2′,3′-difluoro[1,1′-biphenyl]-4-yl}-2,3,9-trimethyl-6H-thieno[3,2-f][1,2,4]triazolo[4,3-a][1,4]diazepin-6-yl]acetate]",0.77,0.32
"Cc1sc2c(c1C)C(c1ccc(-c3ccc(C(=O)NCc4ccc(S(=O)(=O)Nc5ccc(C)c6c(C#N)c[nH]c56)cc4)c(F)c3)cc1)=N[C@@H](CC(=O)OC(C)(C)C)c1nnc(C)n1-2 [Example Compound 139, t-butyl [(6S)-4-{4′-[({4-[(3-cyano-4-methyl-1H-indol-7-yl)sulfamoyl]phenyl}methyl)carbamoyl]-3′-fluoro[1,1′-biphenyl]-4-yl}-2,3,9-trimethyl-6H-thieno[3,2-f][1,2,4]triazolo[4,3-a][1,4]diazepin-6-yl]acetate]",0.45,0.25
"Cc1sc2c(c1C)C(c1ccc(-c3ccc(C(=O)NCc4ccc(S(=O)(=O)Nc5ccc(C)c6c(C#N)c[nH]c56)cc4)c(Cl)c3)cc1)=N[C@@H](CC(=O)OC(C)(C)C)c1nnc(C)n1-2 [Example Compound 140, t-butyl [(6S)-4-{3′-chloro-4′-[({4-[(3-cyano-4-methyl-1H-indol-7-yl)sulfamoyl]phenyl}methyl)carbamoyl][1,1′-biphenyl]-4-yl}-2,3,9-trimethyl-6H-thieno[3,2-f][1,2,4]triazolo[4,3-a][1,4]diazepin-6-yl]acetate]",0.52,0.38
"Cc1cc(-c2ccc(C3=N[C@@H](CC(=O)OC(C)(C)C)c4nnc(C)n4-c4sc(C)c(C)c43)cc2)ccc1C(=O)NCc1ccc(S(=O)(=O)Nc2ccc(C)c3c(C#N)c[nH]c23)cc1 [Example Compound 141, t-butyl [(6S)-4-{4′-[({4-[(3-cyano-4-methyl-1H-indol-7-yl)sulfamoyl]phenyl}methyl)carbamoyl]-3′-methyl[1,1′-biphenyl]-4-yl}-2,3,9-trimethyl-6H-thieno[3,2-f][1,2,4]triazolo[4,3-a][1,4]diazepin-6-yl]acetate]",0.92,0.47
"Cc1sc2c(c1C)C(c1ccc(-c3ccc(C(=O)NCc4ccc(S(=O)(=O)Nc5ccc(C)c6c(C#N)c[nH]c56)cc4)cc3F)cc1)=N[C@@H](CC(=O)OC(C)(C)C)c1nnc(C)n1-2 [Example Compound 142, t-butyl [(6S)-4-{4′-[({4-[(3-cyano-4-methyl-1H-indol-7-yl)sulfamoyl]phenyl}methyl)carbamoyl]-2′-fluoro[1,1′-biphenyl]-4-yl)-2,3,9-trimethyl-6H-thieno[3,2-f][1,2,4]triazolo[4,3-a][1,4]diazepin-6-yl]acetate]",1.3,0.51
"Cc1sc2c(c1C)C(c1ccc(-c3ccc(C(=O)NCc4ccc(S(=O)(=O)Nc5ccc(C)c6c(C#N)c[nH]c56)cc4)cc3Cl)cc1)=N[C@@H](CC(=O)OC(C)(C)C)c1nnc(C)n1-2 [Example Compound 143, t-butyl [(6S)-4-{2′-chloro-4′-[({4-[(3-cyano-4-methyl-1H-indol-7-yl)sulfamoyl]phenyl}methyl)carbamoyl][1,1′-biphenyl]-4-yl}-2,3,9-trimethyl-6H-thieno[3,2-f][1,2,4]triazolo[4,3-a][1,4]diazepin-6-yl]acetate]",2.4,1.6
"Cc1cc(C(=O)NCc2ccc(S(=O)(=O)Nc3ccc(C)c4c(C#N)c[nH]c34)cc2)ccc1-c1ccc(C2=N[C@@H](CC(=O)OC(C)(C)C)c3nnc(C)n3-c3sc(C)c(C)c32)cc1 [Example Compound 144, t-butyl [(6S)-4-{4′-[({4-[(3-cyano-4-methyl-1H-indol-7-yl)sulfamoyl]phenyl}methyl)carbamoyl]-2′-methyl[1,1′-biphenyl]-4-yl}-2,3,9-trimethyl-6H-thieno[3,2-f][1,2,4]triazolo[4,3-a][1,4]diazepin-6-yl]acetate]",1.2,0.59
"Cc1sc2c(c1C)C(c1ccc(-c3ccc(C(=O)NCc4ccc(S(=O)(=O)Nc5ccc(C)c6c(C#N)c[nH]c56)cc4)nc3)cc1)=N[C@@H](CC(=O)OC(C)(C)C)c1nnc(C)n1-2 [Example Compound 145, t-butyl [(6S)-4-(4-{6-[({4-[(3-cyano-4-methyl-1H-indol-7-yl)sulfamoyl]phenyl}methyl)carbamoyl]pyridin-3-yl}phenyl)-2,3,9-trimethyl-6H-thieno[3,2-f][1,2,4]triazolo[4,3-a][1,4]diazepin-6-yl]acetate]",0.44,0.17
"COC(=O)C[C@@H]1N=C(c2ccc(-c3cnc(C(=O)NCc4ccc(S(=O)(=O)Nc5ccc(C)c6c(C#N)c[nH]c56)cc4)nc3)cc2)c2c(sc(C)c2C)-n2c(C)nnc21 [Example Compound 146, methyl [(6S)-4-(4-{2-[({4-[(3-cyano-4-methyl-1H-indol-7-yl)sulfamoyl]phenyl}methyl)carbamoyl]pyrimidin-5-yl}phenyl)-2,3,9-trimethyl-6H-thieno[3,2-f][1,2,4]triazolo[4,3-a][1,4]diazepin-6-yl]acetate]",1.3,0.26
"Cc1sc2c(c1C)C(c1ccc(-c3cnc(C(=O)NCc4ccc(S(=O)(=O)Nc5ccc(C)c6c(C#N)c[nH]c56)cc4)nc3)cc1)=N[C@@H](CC(=O)OC(C)(C)C)c1nnc(C)n1-2 [Example Compound 147, t-butyl [(6S)-4-(4-{2-[({4-[(3-cyano-4-methyl-1H-indol-7-yl)sulfamoyl]phenyl}methyl)carbamoyl]pyrimidin-5-yl}phenyl)-2,3,9-trimethyl-6H-thieno[3,2-f][1,2,4]triazolo[4,3-a][1,4]diazepin-6-yl]acetate]",0.42,0.13
"Cc1sc2c(c1C)C(c1ccc(-c3cnc(C(=O)NCc4ccc(S(=O)(=O)Nc5ccc(C)c6c(C#N)c[nH]c56)cc4)cn3)cc1)=N[C@@H](CC(=O)OC(C)(C)C)c1nnc(C)n1-2 [Example Compound 148, t-butyl [(6S)-4-(4-{5-[({4-[(3-cyano-4-methyl-1H-indol-7-yl)sulfamoyl]phenyl}methyl)carbamoyl]pyrazin-2-yl}phenyl)-2,3,9-trimethyl-6H-thieno[3,2-f][1,2,4]triazolo[4,3-a][1,4]diazepin-6-yl]acetate]",0.2,0.042
